Assay results reported in US20210308089A1, “METHODS OF TREATING AND/OR PREVENTING VIRAL INFECTIONS AND/OR DISEASES CAUSED BY VIRUSES IN A SUBJECT IN NEED THEREOF” (priority 2020, published 2021).
Like-named read-outs stand apart in the source and are kept apart here.

System: patients of the REDUCE-IT and earlier EPA placebo-controlled trials
Format: in vivo, human
Details: R-I
[1] = Bilirubin shift: normal to high (Day 120)
[2] = Bilirubin shift: normal to high (Day 360)
[3] = Bilirubin shift: normal to high (Day 720)
[4] = Bilirubin shift: normal to high (Day 1080)
[5] = Bilirubin shift: normal to high (Day 1440)
[6] = Bilirubin shift: normal to high (Day 1800)

Compound: CC/C=C\C/C=C\C/C=C\C/C=C\C/C=C\CCCC(=O)OCC [icosapent ethyl, eicosapentaenoic acid ethyl ester]
- Risk Ratio (95% CI): Urate shift: normal to low (Day 1440): 0.210 (0.046 to 0.973) 4
- Risk Ratio (95% CI): Uric acid PCS High >7.5 mg/dL (Women): 1.180 (0.974 to 1.429) −1
- Risk Ratio (95% CI): Uric acid PCS High >8.0 mg/dL (Men): 1.313 (1.183 to 1.458) −2
- Risk Ratio (95% CI): Uric acid PCS Low <1.9 mg/dL (Women): 1.000 (0.063 to 15.986) −1
- Risk Ratio (95% CI): Uric acid PCS Low <2.5 mg/dL (Men): 0.650 (0.324 to 1.305) 2
- ARR (Bilirubin >1x ULN to 2x ULN): 3.5%
- NNT (Bilirubin >1x ULN to 2x ULN): −29
- Risk Ratio (95% CI) (Bilirubin >1x ULN to 2x ULN): 3.157 (2.392 to 4.168) −4
- ARR (Bilirubin >2x ULN to 3x ULN): 0.2%
- NNT (Bilirubin >2x ULN to 3x ULN): −497
- Risk Ratio (95% CI) (Bilirubin >2x ULN to 3x ULN): 3.668 (1.024 to 13.136) −4
- ARR (Bilirubin high (Day 120)): 2.4%
- NNT (Bilirubin high (Day 120)): −42
- Risk Ratio (95% CI) (Bilirubin high (Day 120)): 4.288 (2.849 to 6.454) −4
- ARR (Bilirubin high (Day 360)): 2.0%
- NNT (Bilirubin high (Day 360)): −50
- Risk Ratio (95% CI) (Bilirubin high (Day 360)): 3.263 (2.203 to 4.832) −4
- ARR (Bilirubin high (Day 720)): 2.6%
- NNT (Bilirubin high (Day 720)): −38
- Risk Ratio (95% CI) (Bilirubin high (Day 720)): 5.052 (3.174 to 8.039) −5
- ARR (Bilirubin high (Day 1080)): 2.0%
- NNT (Bilirubin high (Day 1080)): −50
- Risk Ratio (95% CI) (Bilirubin high (Day 1080)): 2.430 (1.683 to 3.508) −3
- ARR (Bilirubin high (Day 1440)): 2.5%
- NNT (Bilirubin high (Day 1440)): −40
- Risk Ratio (95% CI) (Bilirubin high (Day 1440)): 3.543 (2.243 to 5.596) −4
- ARR (Bilirubin high (Day 1800)): 2.3%
- NNT (Bilirubin high (Day 1800)): −43
- Risk Ratio (95% CI) (Bilirubin high (Day 1800)): 2.670 (1.569 to 4.545) −4
- ARR [1]: 1.3%
- NNT [1]: −77
- Risk Ratio (95% CI) [1]: 5.106 (2.754 to 9.467) −5
- ARR [2]: 1.3%
- NNT [2]: −80
- Risk Ratio (95% CI) [2]: 5.431 (2.773 to 10.636) −5
- ARR [3]: 1.3%
- NNT [3]: −76
- Risk Ratio (95% CI) [3]: 4.803 (2.516 to 9.168) −4
- ARR [4]: 1.0%
- NNT [4]: −95
- Risk Ratio (95% CI) [4]: 2.235 (1.374 to 3.636) −3
- ARR [5]: 1.8%
- NNT [5]: −57
- Risk Ratio (95% CI) [5]: 5.445 (2.687 to 11.034) −5
- ARR [6]: 1.2%
- NNT [6]: −81
- Risk Ratio (95% CI) [6]: 2.556 (1.242 to 5.259) −4
- Placebo-Adjusted % Change (Erythrocytes (Day 120)): +.72%
- Placebo-Adjusted % Change (Erythrocytes (Day 360)): +.26%
- Placebo-Adjusted % Change (Erythrocytes (Day 720)): +.29%
- Placebo-Adjusted % Change (Erythrocytes (Day 1080)): +.43%
- Placebo-Adjusted % Change (Erythrocytes (Day 1440)): +.66%
- ARR (Erythrocytes low (Day 120)): −1.3%
- NNT (Erythrocytes low (Day 120)): 77
- Risk Ratio (95% CI) (Erythrocytes low (Day 120)): 0.814 (0.685 to 0.968) 1
- ARR (Erythrocytes low (Day 360)): −0.4%
- NNT (Erythrocytes low (Day 360)): 223
- Risk Ratio (95% CI) (Erythrocytes low (Day 360)): 0.932 (0.781 to 1.113) 1
- ARR (Erythrocytes low (Day 720)): −0.4%
- NNT (Erythrocytes low (Day 720)): 251
- Risk Ratio (95% CI) (Erythrocytes low (Day 720)): 0.940 (0.779 to 1.133) 1
- ARR (Erythrocytes low (Day 1080)): −1.7%
- NNT (Erythrocytes low (Day 1080)): 60
- Risk Ratio (95% CI) (Erythrocytes low (Day 1080)): 0.781 (0.642 to 0.950) 2
- ARR (Erythrocytes low (Day 1440)): −0.8%
- NNT (Erythrocytes low (Day 1440)): 120
- Risk Ratio (95% CI) (Erythrocytes low (Day 1440)): 0.888 (0.720 to 1.093) 1
- ARR (Erythrocytes low (Day 1800)): −0.2%
- NNT (Erythrocytes low (Day 1800)): 485
- Risk Ratio (95% CI) (Erythrocytes low (Day 1800)): 0.975 (0.756 to 1.258) 1
- Placebo-Adjusted % Change (Hematocrit (Day 120)): +.42%
